Experiment [1] deals with HIV-1 integrase (Human immunodeficiency virus 1). Nature of the experiment: In vitro inhibitory concentration against HIV-1 recombinant integrase activity in strand transfer assay.
Experiment [2] shares this target. Kind of experiment: In vitro inhibitory concentration against HIV-1 recombinant integrase activity in standard 3'-processing assay.

Data on one compound can be found in BindingDB's records for doi:10.1016/j.bmcl.2005.06.036 (Unit&#233, 2005).

Each structure is given as a SMILES string.

On to `O=C(c1ccc(O)cc1)c1ccc2ccc(/C=C/c3ccc(O)c(O)c3)nc2c1O` [{2-[(E)-2-(3,4-Dihydroxy-phenyl)-vinyl]-8-hydroxy-quinolin-7-yl}-(4-hydroxy-phenyl)-methanone], for which the IC50 in experiment [1] and in experiment [2] was above 100 µM in each case.

In general, IC50 refers to the midpoint of a concentration-inhibition curve.
